Literature values in PubChem BioAssay AID1259410 (Chemical Carcinogenesis Research Information System (CCRIS), 2018).

Test system: rodent tumor promotion studies, tumor incidence
Test: CCRIS tumor promotion studies
Conditions: Route [Promoter]: ORAL

In the case of `CCC1(c2ccccc2)C(=O)NC(=O)NC1=O`, the outcome (Carcinogen: DIMETHYLNITROSAMINE, 62-75-9, Doses [Carcinogen]: 5 UG/G ONCE, Doses [Promoter]: 0, 500 PPM IN THE DRINKING WATER FOR 24 WK BEGINNING POST CARCINOGEN DOSE (STUDY DURATION: 26 WK), Route [Carcinogen]: INTRAPERITONEAL, Species: MOUSE, Strain/Sex: B6C3F1/MALE) is listed as “liver: adenoma”, the outcome (Carcinogen: METHYL(ACETOXYMETHYL)NITROSAMINE, 56856-83-8, Doses [Carcinogen]: 0.05 MMOL/KG IN 5 ML STERILE PHOSPHATE BUFFER ONCE, Doses [Promoter]: 0, 500 PPM IN DRINKING WATER BEGINNING 2 WK POST CARCINOGEN DOSE AND CONTINUING FOR 78 WK (STUDY DURATION: 80 WK), Route [Carcinogen]: INTRAPERITONEAL, Species: RAT, Strain/Sex: F344/MALE) is listed as “thyroid: follicular cell adenoma or follicular cell carcinoma or c-cell tumor; l” and the outcome (Carcinogen: METHYLNITROSOUREA, Doses [Carcinogen]: 20 MG/KG 2/WK FOR 4 WK, Doses [Promoter]: 0.05% IN DIET FOR 32 WK, Route [Carcinogen]: INTRAPERITONEAL, Species: RAT, Strain/Sex: F344/MALE) is listed as “thyroid gland: adenocarcinoma”. For the same compound, the outcome (Carcinogen: N,N-DIETHYLNITROSAMINE, 55-18-5, Doses [Carcinogen]: 75 MG/KG IN SALINE ONCE AT 5 WK OF AGE, Doses [Promoter]: 0, 500 PPM IN DIET FOR 45 WK BEGINNING 2 WK POST CARCINOGEN TREATMENT (STUDY DURATION: 47 WK), Route [Carcinogen]: INTRAPERITONEAL, Species: RAT, Strain/Sex: F344/MALE) was “liver: hepatocellular adenoma”, the outcome (Carcinogen: N,N-DIETHYLNITROSAMINE, 55-18-5, Doses [Carcinogen]: 75 MG/KG IN SALINE ONCE AT 5 WK OF AGE, Doses [Promoter]: 0, 500 PPM IN DIET FOR 46-72 WK BEGINNING 2 WK POST CARCINOGEN TREATMENT (STUDY DURATION: 46-72 WK), Route [Carcinogen]: INTRAPERITONEAL, Species: RAT, Strain/Sex: F344/MALE) was “liver: hepatocellular adenoma” and the outcome (Carcinogen: N-BIS(2-HYDROXYPROPYL)NITROSAMINE, Doses [Carcinogen]: 70 MG/100 G BW 1/WK FOR 4 OR 6 WK, Doses [Promoter]: 500 PPM IN DIET FROM WK 5-16 OR 7-18, Route [Carcinogen]: SUBCUTANEOUS, Species: RAT, Strain/Sex: WISTAR/MALE) was “thyroid gland: follicular, papillary, and solid adenoma, carcinoma”. For the same compound, the outcome (Carcinogen: N-METHYL-N-NITROSOUREA, 684-93-5, Doses [Carcinogen]: 30 MG/KG BW ONCE AT 3 MO OF AGE, Doses [Promoter]: 0, 50 MG/100 G IN DIET FOR 7 MO BEGINNING 7 MO POST CARCINOGEN DOSE (STUDY DURATION: 14 MO), Route [Carcinogen]: INTRAVENOUS, Species: RAT, Strain/Sex: LOBUND-WISTAR/MALE) was “prostate/seminal vesicle: adenocarcinoma”, the outcome (Carcinogen: N-METHYL-N-NITROSOUREA, 684-93-5, Doses [Carcinogen]: 30 MG/KG BW ONCE, Doses [Promoter]: 0, 0.5% IN DIET FOR DURATION OF STUDY BEGINNING POST CARCINOGEN DOSE(STUDY DURATION: 14 MO), Route [Carcinogen]: INTRAVENOUS, Species: RAT, Strain/Sex: LOBUND-WISTAR/MALE) was “lung: carcinoma, prostate/seminal vesicles: tumor” and the outcome (Carcinogen: N-NITROSODIETHYLAMINE, 55-18-5, Doses [Carcinogen]: 5 UG/G BW ONCE AT 15 D OF AGE, Doses [Promoter]: 0, 500 PPM IN DRINKING WATER BEGINNING AT 4 WK OF AGE AND CONTINUING FOR DURATION OF STUDY (STUDY DURATION: 28 WK), Route [Carcinogen]: INTRAPERITONEAL, Species: MOUSE, Strain/Sex: C3H/HENCR/FEMALE) was “liver: hepatocellular adenoma”. The outcome (Carcinogen: N-NITROSODIETHYLAMINE, 55-18-5, Doses [Carcinogen]: 5 UG/G BW ONCE AT 15 D OF AGE, Doses [Promoter]: 0, 500 PPM IN DRINKING WATER BEGINNING AT 4 WK OF AGE AND CONTINUING FOR DURATION OF STUDY (STUDY DURATION: 28 WK), Route [Carcinogen]: INTRAPERITONEAL, Species: MOUSE, Strain/Sex: C3H/HENCR/MALE) was “liver: hepatocellular adenoma”, the outcome (Carcinogen: N-NITROSODIETHYLAMINE, 55-18-5, Doses [Carcinogen]: 75 MG IN STERILE SALINE ONCE, Doses [Promoter]: 0, 500 PPM IN DIET BEGINNING 2 WK POST CARCINOGEN DOSE AND CONTINUING FOR DURATION OF STUDY (STUDY DURATION: 78 WK), Route [Carcinogen]: INTRAPERITONEAL, Species: RAT, Strain/Sex: F344/MALE) was “liver: hepatocellular adenoma or carcinoma; thyroid gland: follicular cell adeno” and the outcome (Carcinogen: N-NITROSODIETHYLAMINE, 55-18-5, Doses [Carcinogen]: 75 MG ONCE, Doses [Promoter]: 0, 500 PPM IN DRINKING WATER BEGINNING 2 WK POST CARCINOGEN DOSE AND CONTINUING FOR DURATION OF STUDY (STUDY DURATION: 5, Route [Carcinogen]: INTRAPERITONEAL, Species: RAT, Strain/Sex: F344/MALE) was “liver: hepatocellular adenoma”. The outcome (Carcinogen: N-NITROSODIETHYLAMINE, 55-18-5, Doses [Carcinogen]: 75 MG ONCE, Doses [Promoter]: 0, 500 PPM IN DRINKING WATER BEGINNING 2 WK POST CARCINOGEN DOSE AND CONTINUING FOR DURATION OF STUDY (STUDY DURATION: 7, Route [Carcinogen]: INTRAPERITONEAL, Species: RAT, Strain/Sex: F344/MALE) was “liver: hepatocellular carcinoma; thyroid gland: follicular cell adenoma or adeno”, the outcome (Carcinogen: N-NITROSODIETHYLAMINE, 55-18-5, Doses [Carcinogen]: 90 MG/KG BW ONCE, Doses [Promoter]: 0, 500 PPM IN DIET FOR 53 WK BEGINNING 2 WK POST CARCINOGEN DOSE (STUDY DURATION: 55 WK), Route [Carcinogen]: INTRAPERITONEAL, Species: MOUSE, Strain/Sex: D2B6F1/MALE) was “liver: hepatocellular adenoma, hepatocellular carcinoma, hepatoblastoma” and the outcome (Carcinogen: N-NITROSODIETHYLAMINE, 7119-92-8, Doses [Carcinogen]: 80 MG/KG ONCE, Doses [Promoter]: 0, 500 PPM IN DIET BEGINNING 1 WK POST CARCINOGEN DOSE AND CONTINUING FOR 168 D (STUDY DURATION: 259 D), Route [Carcinogen]: INTRAPERITONEAL, Species: MOUSE, Strain/Sex: B6C3F1/MALE) was “liver: hepatocellular adenoma or carcinoma”. The outcome (Carcinogen: TAMOXIFEN, 10540-29-1, Doses [Carcinogen]: 420 PPM IN DIET FOR 3 MO, Doses [Promoter]: 0, 0.1% (W/V) IN DRINKING WATER FOR LIFE BEGINNING POST CARCINOGEN TREATMENT (STUDY DURATION: LIFETIME), Route [Carcinogen]: ORAL, Species: RAT, Strain/Sex: WISTAR/FEMALE) was “liver: tumor”.
